From patent publication US9597407B2, “Targeted antimicrobial moieties” (C3 Jian, Inc., priority 2009, dated 2017)
Entries after “also recorded” stand apart in the source; their conditions may differ.

system: bacteria; assay: Binding of targeting peptides to microorganisms (Table 3); conditions: microorganism bound by the targeting peptide; binding in aqueous buffers chosen by peptide solubility, preferably 1x PBS

Substance	Target(s)
PF-162 (GIRRLHSVENLNREISHRMAGLR; Peptide with targeting and/or antimicrobial activity)	S. epidermidis and MRSA
PF-300 (VKDVLLELFNKIIGA; Peptide with targeting and/or antimicrobial activity)	B. subtilis; also recorded: C. difficile
PF-193 (PPHCPPGHAKKGWC; Peptide with targeting and/or antimicrobial activity)	S. epidermidis and M. luteus and E. coli and MRSA and E. faecalis and C. jejuni
PF-225 (MNCASPEFKKLMELYK; Peptide with targeting and/or antimicrobial activity)	S. epidermidis
PF-291 (DVDGAIESEL; Peptide with targeting and/or antimicrobial activity)	S. mutans; also recorded: E. coli
PF-158 (VRLESRPADLPE; Peptide with targeting and/or antimicrobial activity)	S. epidermidis
PF-228 (NQLGSQAFAQL; Peptide with targeting and/or antimicrobial activity)	S. mutans
PF-334 (QQYLILDRM; Peptide with targeting and/or antimicrobial activity)	S. epidermidis; also recorded: C. difficile
PF-248 (ILSKLWFWMINSLGVVLLVSYWLLAKWGVA; Peptide with targeting and/or antimicrobial activity)	S. mutans; also recorded: S. epidermidis; also recorded: M. luteus; also recorded: E. coli; also recorded: P. aeruginosa; also recorded: A. baumannii
PF-189 (GNLTRSREAARATQ; Peptide with targeting and/or antimicrobial activity)	S. epidermidis and M. luteus and C. albicans and MRSA and E. faecalis and C. jejuni

same assay, conditions: microorganism the targeting peptide binds; binding in aqueous buffers that varied with peptide solubility, preferably 1x PBS

Substance	Target(s)
1T-272 (QLAPIDKQLKAVKKIAFYESESTAAKAVTVA; Peptide with targeting and/or antimicrobial activity) [Peptide 1T-272]	F. nucleatum; also recorded: S. mutans; also recorded: S. oralis; also recorded: S. sanguinis
TT-311 (AIFDAMHNL; Peptide with targeting and/or antimicrobial activity)	S. mutans; also recorded: S. sobrinus
1T-207 (SPLEKYGTGSMTALTFLLGCCLLVLSKKSR; Peptide with targeting and/or antimicrobial activity) [Peptide 1T-207]	F. nucleatum; also recorded: S. sanguinis
1T-199 (RAGRIKKLSQKEAEPFEN; Peptide with targeting and/or antimicrobial activity) [Peptide 1T-199]	S. sanguinis
1T-294 (YDKIADGVFKIGKRGVL; Peptide with targeting and/or antimicrobial activity) [Peptide 1T-294]	T. denticola
1T-216 (FFLNVIAIRIPHF; Peptide with targeting and/or antimicrobial activity) [Peptide 1T-216]	S. sanguinis
1T-237 (EDPVPNHFTLRRNKKEKPSKS; Peptide with targeting and/or antimicrobial activity) [Peptide 1T-237]	S. sanguinis

same assay, conditions: peptide binding in aqueous buffers that varied depending on peptide solubility; preferably 1x PBS

Substance	Target(s) (microorganism bound by the targeting peptide)	Target(s) (microorganisms bound by the targeting peptide)
PF-C271 (FFPSYYSIIITYF; Peptide with targeting and/or antimicrobial activity)	A. naeslundii; also recorded: F. nucleatum; also recorded: P. gingivalis; also recorded: S. mutans; also recorded: T. denticola	–
PF-C273 (KNMLKRRMKQKRLFDEEDRLRVLSKYTKSYY; Peptide with targeting and/or antimicrobial activity)	A. naeslundii; also recorded: P. gingivalis; also recorded: S. mutans; also recorded: T. denticola	–
PF-766 (DAYYAQLRKQKEIEEGA; Peptide with targeting and/or antimicrobial activity)	S. epidermidis and M. luteus and C. albicans and MRSA and E. faecalis and C. jeikeium	–
PF-790 (PAGPDHLDQRDHR; Peptide with targeting and/or antimicrobial activity)	Mycobacteria spp.	–
PF-800 (WYYFDNNGYM; Peptide with targeting and/or antimicrobial activity)	S. mutans	–
PF-676 (AEYRGL; Peptide with targeting and/or antimicrobial activity)	S. mutans; also recorded: E. coli	–
PF-570 (KKFPTEESHIQAVLEFKKLTEHPSG; Peptide with targeting and/or antimicrobial activity)	–	S. pneumoniae; also recorded: C. jeikeium
PF-509 (EAKVQAKGEQIACNNY; Peptide with targeting and/or antimicrobial activity)	–	S. mutans; also recorded: B. subtilis; also recorded: E. coli
PF-796 (YTQSNIPTAYALMLSNKDSI; Peptide with targeting and/or antimicrobial activity)	S. mutans	–
PF-689 (SAPSG; Peptide with targeting and/or antimicrobial activity)	S. mutans; also recorded: E. coli	–
PF-786 (LSERERRRLKRGII; Peptide with targeting and/or antimicrobial activity)	Mycobacteria spp.	–
PF-402 (FIDVLKSKINEFLN; Peptide with targeting and/or antimicrobial activity)	–	S. epidermidis; also recorded: P. aeruginosa; also recorded: E. faecalis; also recorded: C. jejuni
PF-C045 (FREGMGWPLSNEGSPTAPLPKHRNQV; Peptide with targeting and/or antimicrobial activity)	A. naeslundii; also recorded: T. denticola	–
PF-C093 (EKLGTMV; Peptide with targeting and/or antimicrobial activity)	A. naeslundii; also recorded: F. nucleatum; also recorded: S. mutans	–

same assay, conditions: peptide binding in aqueous buffers varied by peptide solubility; preferably 1x PBS

Substance	Target(s) (microorganism bound by the targeting peptide)
1T-48 (KLQVHHGRATHTLLLQPPLCAPGTIR; Peptide with targeting and/or antimicrobial activity) [Peptide 1T-48]	S. aureus; also recorded: S. epidermidis; also recorded: C. jeikeium; also recorded: C. xerosis; also recorded: C. striatum; also recorded: P. aeruginosa
1T-55 (NHKTLKEWKAKWGPEAVESWATLLG; Peptide with targeting and/or antimicrobial activity) [Peptide 1T-55]	C. xerosis; also recorded: P. aeruginosa
1T-119 (SPATQKAPTRAQPSRAPVQDCGDGRPTAAPDDVERLSPR; Peptide with targeting and/or antimicrobial activity) [Peptide 1T-119]	S. gordonii; also recorded: S. mitis; also recorded: S. mutans; also recorded: S. oralis
1T-110 (LAAKTAVCVGRAFM; Peptide with targeting and/or antimicrobial activity) [Peptide 1T-110]	A. naeslundii; also recorded: P. gingivalis; also recorded: S. epidermidis; also recorded: S. gordonii; also recorded: S. mitis; also recorded: S. mutans; also recorded: S. oralis; also recorded: S. sanguinis
1T-36 (VYRHLRFIDGKLVEIRLERK; Peptide with targeting and/or antimicrobial activity) [Peptide 1T-36]	S. aureus; also recorded: S. epidermidis; also recorded: C. jeikeium; also recorded: C. xerosis; also recorded: C. striatum; also recorded: P. aeruginosa
1T-86 (HRKNPVLGVGRRHRAHNVA; Peptide with targeting and/or antimicrobial activity) [Peptide 1T-86]	S. mitis; also recorded: S. oralis; also recorded: S. salivarious
1T-114 (RQAPGPGLVTITAACSAPGSRSR; Peptide with targeting and/or antimicrobial activity) [Peptide 1T-114]	A. naeslundii; also recorded: P. gingivalis; also recorded: S. epidermidis; also recorded: S. gordonii; also recorded: S. mitis; also recorded: S. mutans; also recorded: S. oralis; also recorded: S. sanguinis
1T-123 (LVRRNAVAGRSDGLAGAEQLDLVRLQGVL; Peptide with targeting and/or antimicrobial activity) [Peptide 1T-123]	S. gordonii
1T-9 (WAWAESPRCVSTRSNIHALAFRVEVAALT; Peptide with targeting and/or antimicrobial activity) [Peptide 1T-9]	M. xanthus
1T-43 (DRCLSVLSWSPPKVSPLI; Peptide with targeting and/or antimicrobial activity) [Peptide 1T-43]	C. jeikium; also recorded: P. aeruginosa
1T-106 (DALRRSRSQGRRHR; Peptide with targeting and/or antimicrobial activity) [Peptide 1T-106]	S. gordonii; also recorded: S. mitis; also recorded: S. mutans; also recorded: S. oralis; also recorded: S. salivarious
1T-139 (AVAGAAVGALLGNDARSTAVGAAIGGALGAGAGELTKNK; Peptide with targeting and/or antimicrobial activity) [Peptide 1T-139]	A. naeslundii; also recorded: S. gordonii; also recorded: S. mitis; also recorded: S. mutans; also recorded: S. oralis
1T-117 (GPGVVGPAPFSRLPAHALNL; Peptide with targeting and/or antimicrobial activity) [Peptide 1T-117]	S. mutans
1T-104 (RAVAAHLQGRHHGHQVRRQRHGQR; Peptide with targeting and/or antimicrobial activity) [Peptide 1T-104]	S. mitis
